Assay results reported in patent US10059973B2, “Carbohydrate esters as inducers for gene expression” (priority 2012, dated 2018).

Assays:
[1] = system: T. reesei Rut-C30; experiment: Protein (cellulase) induction in T. reesei Rut-C30 shake-flask culture, CMC endo-glucanase activity assay; type: cell-based, Trichoderma reesei; details: for Cellulase activity at day 3 / Cellulase activity at day 3 (specific induction power, U/mg inducer): 2% glucose as carbon source
From the text: To prepare for protein induction studies using Trichoderma, a citrate minimal media was first prepared. The media composition, as modified from England et al. (U.S. Pat. […] The final pH was adjusted to 5.50 using NaOH. […] It was obtained from ATCC (56765) and developed as a catabolic de-repressed strain from classic mutagenesis of parent strain NG14 and the wild type […] al., BMC Genomics, 9:327, (2008)). To propagate Trichoderma, the freeze-dried stock from ATCC was first dissolved in sterile deionized water and then transferred onto a PDA (potato dextrose agar) plate (Teknova […]) using a sterile loop. The PDA plate was maintained at room temperature under white fluorescent light and after approximately 7 days, green Trichoderma spores could be seen. In addition, 60% (w/v) glucose stock was prepared and used both as control and as the carbon source for Trichoderma growth. […] Bacteriol., 73:269-278, (1957)).

[2] = system: Aspergillus niger (NRRL 330); experiment: Protein (amylase) induction in Aspergillus niger culture, amylase activity assay; type: cell-based; details: inducer 0.05 g/L; 1% sorbitol as carbon source; 24 hours after inducer addition
Protocol: The procedure of preparing maltose acetate chemically and subsequent sample recovery follows the same procedure described in Example 4. […] Aspergillus niger (NRRL 330), obtained from ARS culture collection, was maintained on a PDA plate and allowed to sporulate for a week at room temperature. For inoculation, a 2 cm by 2 cm area agar plug was first removed and suspended in 5 mL sterile water. […] After additional 24 hours, the cultures were assayed for amylase activity following similar procedures to those detailed by Barton et al. (J.

[3] = system: cellulase gene promoter in Trichoderma reesei; details: cited from earlier work
[4] = system: Pullularia pullulans; details: cited from earlier work
[5] = system: Penicillium purpurogenum; details: cited from earlier work

Compound: 6″ acetylated lactose monoester [Purified lactose monoacetate]
- Cellulase activity at day 3 ([1]; inducer 0.09 g/L): 2.05 U/mL
- Cellulase activity at day 3 (specific induction power, U/mg inducer) ([1]; inducer 0.09 g/L): 22.0 U/mg
- specific induction activity relative to unmodified lactose ([1]; inducer 0.09 g/L, day 3): approximately 34 times
- Cellulase activity at day 3 ([1]; inducer 0.51 g/L): 10.1 U/mL
- Cellulase activity at day 3 (specific induction power, U/mg inducer) ([1]; inducer 0.51 g/L): 19.9 U/mg
- specific induction activity relative to unmodified lactose ([1]; inducer 0.51 g/L, day 3): ~31 times
- Cellulase activity at day 3 ([1]; inducer 1.05 g/L): 14.0 U/mL
- Cellulase activity at day 3 (specific induction power, U/mg inducer) ([1]; inducer 1.05 g/L): 13.3 U/mg
- specific induction activity relative to unmodified lactose ([1]; inducer 1.05 g/L, day 3): ~21 times

Compound: OC[C@H]1O[C@H](O[C@H]2[C@H](O)[C@@H](O)[C@H](O)O[C@@H]2CO)[C@H](O)[C@@H](O)[C@@H]1O [Maltose, maltose]
- Amylase activity at day 3 [2]: 2.11 U/mL
- Amylase activity at day 3 (specific induction power, U/mg inducer) [2]: 44.0 U/mg

Compound: CC(=O)OC[C@H]1O[C@@H](O[C@@H]2[C@@H](O)[C@H](O)[C@@H](COC(C)=O)O[C@@H]2O)[C@H](O)[C@@H](O)[C@@H]1O [Purified sophorose diacetate, 6′ and 6″ acetylated alpha-sophorose diester]
- Cellulase activity at day 3 ([1]; inducer 0.03 g/L): 6.33 U/mL
- Cellulase activity at day 3 (specific induction power, U/mg inducer) ([1]; inducer 0.03 g/L): 211.0 U/mg
- specific induction power relative to sophorose ([1]; inducer 0.03 g/L, day 3): ~8 times
- Cellulase activity at day 3 ([1]; inducer 0.12 g/L): 23.2 U/mL
- Cellulase activity at day 3 (specific induction power, U/mg inducer) ([1]; inducer 0.12 g/L): 193.3 U/mg
- specific induction power relative to unmodified sophorose ([1]; inducer 0.12 g/L, day 3): ~7 times

Compound: O=C[C@H](O)[C@@H](O)[C@H](O[C@@H]1O[C@H](CO)[C@@H](O)[C@H](O)[C@H]1O)[C@H](O)CO [cellobiose, reference compound]
- Cellulase activity at day 3 ([1]; inducer 1.0 g/L): 0.34 U/mL
- Cellulase activity at day 3 (specific induction power, U/mg inducer) ([1]; inducer 1.0 g/L): 0.34 U/mg

Compound: OC[C@H]1O[C@@H](O[C@H]2[C@H](O)[C@@H](O)C(O)O[C@@H]2CO)[C@H](O)[C@@H](O)[C@H]1O (stereo partly drawn) [lactose, D-lactose, reference compound]
- Cellulase activity at day 3 ([1]; inducer 1.0 g/L): 0.64 U/mL
- Cellulase activity at day 3 (specific induction power, U/mg inducer) ([1]; inducer 1.0 g/L): 0.64 U/mg

Compound: OC[C@H]1O[C@@H](O[C@H]2C(O)O[C@H](CO)[C@@H](O)[C@@H]2O)[C@H](O)[C@@H](O)[C@@H]1O (stereo partly shown) [sophorose, reference compound]
- Cellulase activity at day 3 ([1]; inducer 0.13 g/L): 3.58 U/mL
- Cellulase activity at day 3 (specific induction power, U/mg inducer) ([1]; inducer 0.13 g/L): 26.9 U/mg
- Cellulase activity at day 3 ([1]; inducer 1.3 g/L): 15.0 U/mL
- Cellulase activity at day 3 (specific induction power, U/mg inducer) ([1]; inducer 1.3 g/L): 11.2 U/mg
- activity as cellulase inducer relative to cellobiose [3]: 2500 times

Compound: Sucrose monopalmitate
- induced sucrase yield relative to sucrose [4]: 80 times

Compound: mono-O-acetyl cellobiose
- effectiveness at inducing cellulase (in words) [5]: the most active inducer tested
